What was measured:
[1] = system: Primary rat fibroblasts (from alveolar tissue); assay: colony inhibition test (clonogenic assay); assay type: cell-based; conditions: for Mean no colonies ± SE: 5 days, medium control 55.0±4.6
Description: (§1) Cells from rat mammary carcinoma (Sp 22), primary rat fibroblasts (from alveolar tissue) and four rat hepatoma cell lines (D23, D261, D262A and D262B) were studied.
The method used for rat cells was as follows: 200 cells were plated per dish in 1 ml 'Eagles' methionine enriched medium (MEM) + 10% newborn calf serum (NBCS) in 30 mm culture dishes and incubated for four hours at 37°C. […] Dilutions containing 20 µg/ml, […], 200 ng/ml and 2 ng/ml were prepared, 1 ml of each dilution was added to four dishes of cells, the final concentration being half the concentration of the material added. […] To control dishes 1 ml of MEM + NBCS was added, or 1 ml of MEM + NBCS + 1% ethanol. The dishes were incubated for 5 days. Medium was then removed, and the cell colonies were rinsed with 0.9% W/V NaCl solution and fixed for 15 minutes with methanol. Cell colonies were stained with 1% aqueous crystal violet and the dishes were allowed to dry.

[2] = system: D23 Rat hepatoma; assay: tumour cell colony inhibition test (clonogenic assay); assay type: cell-based; parameters: inhibition of colony formation: dose or concentration left out as unconfirmed; conditions: for Mean no colonies ± SE: 5 days, medium control 41.8±3.5
Description: as §1
The method used for rat cells was as follows: 200 cells were plated per dish in 1 ml 'Eagles' methionine enriched medium (MEM) + 10% newborn calf serum (NBCS) in 30 mm culture dishes and incubated for four hours at 37°C. All became firmly adherent during this initial incubation. […] To control dishes 1 ml of MEM + NBCS was added, or 1 ml of MEM + NBCS + 1% ethanol. The dishes were incubated for 5 days. Medium was then removed, and the cell colonies were rinsed with 0.9% W/V NaCl solution and fixed for 15 minutes with methanol. Cell colonies were stained with 1% aqueous crystal violet and the dishes were allowed to dry.

[3] = Rattus norvegicus, Fibroblast, 120 h, read-out: % colony formation relative to medium control
[4] = Rattus norvegicus, 120 h, read-out: % colony formation relative to medium control

CCCCCCCCCCCCCCCCCC(=O)O [stearic acid, octadecanoic acid]
activity at 0.001 µg/mL [1, 3]: 90%
activity at 0.01 µg/mL [1, 3]: 108%
activity at 0.1 µg/mL [1, 3]: 85.8%
activity at 1 µg/mL [1, 3]: 88.2%
activity at 10 µg/mL [1, 3]: 96.5%
activity at 50 µg/mL [1, 3]: 86.4%
Mean no colonies ± SE ([1]; stearic acid 1ng/ml): 49.5±9.5
Mean no colonies ± SE ([1]; stearic acid 100 ng/ml): 47.2±9.4
Mean no colonies ± SE ([1]; stearic acid 1µg/ml): 48.5±9.2
Mean no colonies ± SE ([1]; stearic acid 10 µg/ml): 52.0±7.7
Mean no colonies ± SE ([1]; stearic acid 50 µg/ml): 47.5±6.0
inhibition of colony development ([1]; summary of Table 2): failed to inhibit
inhibition of colony formation [2]: significant inhibition of colony formation
activity at 0.01 µg/mL [2, 4]: 101%
activity at 0.1 µg/mL [2, 4]: 88.5%
activity at 1 µg/mL [2, 4]: 67%
activity at 10 µg/mL [2, 4]: 67%
activity at 50 µg/mL [2, 4]: 23%
Mean no colonies ± SE ([2]; stearic acid 10ng/ml): 42.3±1.6
Mean no colonies ± SE ([2]; stearic acid 100 ng/ml): 37.0±1.5
Mean no colonies ± SE ([2]; stearic acid 1μg/ml): 28.0±1.5
Mean no colonies ± SE ([2]; stearic acid 10 μg/ml): 28.0±2.9
Mean no colonies ± SE ([2]; stearic acid 50 μg/ml): 10.0±2.6

From patent publication EP0238198A2, “Method of modifying the lipid structure function and expression of cell membranes and pharmaceutical compositions for use therein” (Habib, Nagy Adly, priority 1986, dated 1987)
